Measurements as given in the NIST ThermoML archive (doi:10.1016/j.jct.2007.04.005).

Assay: xn = mol fraction of the nth substance listed
Conditions: 318.15 K, Liquid

CCCCCCCCC [nonane] + C1CCCCC1
mass density [kg/m3]
Conditions | x2 = 0 | x2 = 0.09303 | x2 = 0.2009 | x2 = 0.3051 | x2 = 0.417 | x2 = 0.512 | x2 = 0.5996 | x2 = 0.7052 | x2 = 0.7993 | x2 = 0.9039
18340 kPa | – | – | – | – | – | – | – | 745.3 | 752.1 | 761.1
20370 kPa | 715 | 717.9 | 721.8 | 725.9 | 730.6 | 735.2 | 740.2 | 746.9 | 753.7 | 762.7
22390 kPa | 716.5 | 719.4 | 723.3 | 727.4 | 732.2 | 736.7 | 741.8 | 748.4 | 755.3 | 764.3
24420 kPa | 717.9 | 720.8 | 724.8 | 728.8 | 733.6 | 738.2 | 743.3 | 749.9 | 756.8 | 765.8
26450 kPa | 719.4 | 722.3 | 726.2 | 730.3 | 735.1 | 739.7 | 744.8 | 751.4 | 758.3 | 767.4
28470 kPa | 720.8 | 723.6 | 727.6 | 731.7 | 736.5 | 741.1 | 746.2 | 752.9 | 759.8 | 768.9
29490 kPa | 721.4 | 724.3 | 728.3 | 732.4 | 737.2 | 741.8 | 746.9 | 753.6 | 760.5 | 769.6
30500 kPa | 722.1 | 725 | 729 | 733.1 | 737.9 | 742.5 | 747.6 | 754.3 | 761.2 | 770.3
32530 kPa | 723.4 | 726.4 | 730.4 | 734.4 | 739.3 | 743.8 | 749 | 755.7 | 762.6 | 771.7
34550 kPa | 724.8 | 727.7 | 731.8 | 735.8 | 740.6 | 745.2 | 750.4 | 757.1 | 764 | 773.2
36580 kPa | 726.1 | 729 | 733.1 | 737.1 | 742 | 746.6 | 751.7 | 758.5 | 765.4 | 774.5
38600 kPa | 727.5 | 730.4 | 734.5 | 738.5 | 743.3 | 748 | 753.1 | 759.9 | 766.8 | 776
39620 kPa | 728.1 | 731 | 735.1 | 739.1 | 744 | 748.6 | 753.8 | 760.6 | 767.5 | 776.7
